# Laboratory results: patent US5641789A, “Sulfonamide derivatives of benzenefused hydroxy substituted cycloalkyl and heterocyclic ring compounds” (Pfizer Inc., priority 1995, dated 1997)
# Test system: PAF lethality in CD1 mice
# Assay: PAF lethality assay
# Type: in vivo
# Details: Mus musculus; positive control; oral dosing 45 minutes before i.v. PAF; percent mortality compared to controls
# Description: To evaluate the active compounds of the present invention, in vivo, they are tested by the so-called PAF lethality assay procedure: Materials:
# Mice: CD1 males, all approximately the same weight (about 26 grams), 12 per group.
# Vehicle for oral drug dosing: EES (5% ethanol, 5% emulphor, 90% saline). Stored at room temperature.
# Drugs: For routine screening at 50 mg/kg, 20 mg drug is dissolved in 4 ml EES, using sonication in a sonicator bath or grinding in a Ten Broeck (trademark) grinder to dissolve drug if necessary. If solubility is still a problem, the drug is used as a suspension.
# Vehicle for i.v. Injection: Saline with 2.5 mg/ml Bovine Serum Albumin (BSA, Sigma #A4378) and 0.05 mg/ml Propranolol (Sigma #P0884). Prepared fresh daily and kept at room temperature.
# Platelet Activating Factor (PAF): A […] stock solution is prepared by dissolving 1 mg PAF (Calbiochem #429460) in 0.18 ml ethanol. This stored at -20° C. and is diluted in vehicle (see above) the day of use. The concentration of PAF used is calibrated so that when injected at 0.1 ml/10 grams body weight, it will kill approximately 80% of untreated controls. This is usually about […] (a 1 to 2034 dilution from stock). […]
# 45 minutes before PAF injection, mice are treated orally with drug using 0.1 ml/10 grams body weight. […] Results are expressed as percent mortality as compared to controls. […]
smiles,measurement,value
O=C1CCN(c2ccccc2)N1 [Phenidone],ED50,~25 mg/kg
